{
  "source": "paper PMC6542793",
  "about": "“The identification of small molecule inhibitors of the plant inositol phosphorylceramide synthase which demonstrate herbicidal activity” (Scientific Reports, 2019)",
  "key": {"fungal IPCS": {"tested_on": "fungal IPCS", "design": "method as in PMID 8593016, PMID 9405490, PMID 9614099, PMID 17420565, PMID 19644519", "conditions": "inhibitors of the fungal IPCS; cited from earlier work"}, "AtIPCS2 [1]": {"target": "T1, AtIPCS2 (Arabidopsis thaliana, UniProt Q9SH93)", "T1 construct": "The complete open reading frames of AtIPCS2 and AUR1p were amplified from cDNA or GenEZ ORF Clones; made in house; microsomal membranes", "T1 sequence (Q9SH93 1-305)": "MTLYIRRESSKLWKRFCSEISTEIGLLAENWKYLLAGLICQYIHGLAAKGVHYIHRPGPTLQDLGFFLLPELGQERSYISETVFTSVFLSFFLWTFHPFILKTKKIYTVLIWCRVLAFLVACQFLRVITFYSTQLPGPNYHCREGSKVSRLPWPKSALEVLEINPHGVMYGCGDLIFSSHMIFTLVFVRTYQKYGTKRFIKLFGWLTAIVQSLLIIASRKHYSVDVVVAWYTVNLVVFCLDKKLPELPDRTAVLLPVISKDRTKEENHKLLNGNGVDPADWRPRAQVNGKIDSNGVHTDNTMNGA", "test": "Secondary screening, 96-well plate microsomal in vitro IPCS enzyme assay (AtIPCS2)", "type": "biochemical", "conditions": "AtIPCS2 IC50 (95% CI), microsomal membranes, dose response 100 µM to 46 nM, triplicate", "description": "(§1) In the secondary screening stage the previously described microsomal-based in vitro IPCS assay was adapted and utilised. Initially, all 106 selective hits from the primary screen were tested, in duplicate, at 10 µM.\n(§2) Microsomal material was prepared from MSY23-3C pESC-LEU_AtIPCS2 and MSY23-3C pESC-LEU_AUR1 as previously described. IPCS turnover was assayed using HPTLC (Merck) and imaged using a Fuji FLA−3000 reader and AIDA Image Analyser® software (version 3.52) as previously described. Subsequently, a 96-well plate assay was formatted based on the protocol described by Mina et al.[17]. Following optimisation of substrate concentration and incubation time, each compound at the desired concentration (100 µM to 46 nM; in triplicate), was incubated in 96-well plates (Corning® Costar®) in phosphate buffer (71.4 mM, pH 7.0) with soybean PI (100 µM, final concentration, Avanti), NBD-C6-phytoceramide (15 µM; ThermoFisher) and microsomal membranes (0.3–0.4 Units[17]). Following incubation for 60 minutes (or 40 minutes for MSY23-3C pESC-LEU_AUR1 membranes) at 30 °C the reaction was quenched by the addition of 200 µl methanol per well, the reaction product separated using exchange chromatography in 96-well filter plates (Millipore)[17] and the fluorescence measured at Ex460/Em540 using a fluorescence Microplate Reader (Biotek Synergy H4 with Gen5™). […]"}, "Arabidopsis seedlings": {"tested_on": "Arabidopsis seedlings", "test": "In vivo screening, Arabidopsis seedlings grown on agar", "design": "species or system A. thaliana (Col0)", "description": "In vivo testing of the phenylamidine Compound 1 was undertaken against Arabidopsis seedlings grown on agar.\nA. thaliana (Col0) seedlings were grown for 10 days on 0.8% Murashige and Skoog (MS) agar and then transferred to 1.2% MS agar containing compounds at the desired concentrations or DMSO as a control. Plants were grown at 20 °C under 16 hour day/8 hour night photoperiod."}, "Aur1p [2]": {"target": "T2, Aur1p (Saccharomyces cerevisiae, UniProt P36107)", "T2 construct": "The complete open reading frames of AtIPCS2 and AUR1p were amplified from cDNA or GenEZ ORF Clones; made in house; microsomal membranes", "T2 sequence (P36107 1-401)": "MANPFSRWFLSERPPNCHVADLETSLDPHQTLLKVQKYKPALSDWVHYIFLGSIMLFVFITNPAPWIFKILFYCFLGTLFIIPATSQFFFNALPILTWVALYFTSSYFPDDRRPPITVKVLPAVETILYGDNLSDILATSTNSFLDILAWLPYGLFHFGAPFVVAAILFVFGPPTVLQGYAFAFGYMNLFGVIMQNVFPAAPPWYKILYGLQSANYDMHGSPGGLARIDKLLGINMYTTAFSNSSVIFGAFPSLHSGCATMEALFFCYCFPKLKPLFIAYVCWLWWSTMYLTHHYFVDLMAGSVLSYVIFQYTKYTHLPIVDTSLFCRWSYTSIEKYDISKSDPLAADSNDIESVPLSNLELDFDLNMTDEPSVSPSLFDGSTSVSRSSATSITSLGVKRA", "T2 sequence (Q06346 1-221 partner)": "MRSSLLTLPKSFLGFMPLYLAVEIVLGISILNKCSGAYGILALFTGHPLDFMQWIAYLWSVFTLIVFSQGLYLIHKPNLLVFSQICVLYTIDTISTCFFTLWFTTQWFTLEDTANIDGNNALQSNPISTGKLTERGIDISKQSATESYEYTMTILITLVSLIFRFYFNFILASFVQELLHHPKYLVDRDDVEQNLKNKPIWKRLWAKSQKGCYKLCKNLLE", "test": "Secondary screening, 96-well plate microsomal in vitro IPCS enzyme assay (Aur1p control)", "type": "biochemical", "description": "as §1, §2"}, "AtIPCS2 [3]": {"target": "T1, AtIPCS2", "test": "HPTLC in vitro IPCS assay of microsomal extracts, NBD-IPC production (AtIPCS2)", "type": "biochemical", "conditions": "presence vs absence of AbA", "description": "In the quadruple pdr1∆ pdr3∆ pdr16∆ pdr17∆ strain, AUR1 was deleted and replaced by a HIS3 selectable marker, with growth supported by expression of the essential AUR1 gene from the plasmid pRS316-AUR1 under uracil selection. […] (Fig. 2).\nFigure 2 HPTLC separation of in vitro assayed Aur1p and AtIPCS2 showing the production of NBD-IPC in the presence (+) and absence (−) of AbA. […] NBD-Cer is the substrate, NBD-C6-phytoceramide.\nas §2, with “Following optimisation of substrate concentration and incubation time, each compound at the desired concentration (100 µM to 46 nM; in triplicate), was incubated in 96-well plates (Corning® Costar®) in phosphate buffer (71.4 mM, pH 7.0) with soybean PI (100 µM, final concentration, Avanti), NBD-C6-phytoceramide (15 µM; ThermoFisher) and microsomal membranes (0.3–0.4 Units[17]).” left out"}, "Aur1p [4]": {"target": "T2, Aur1p", "test": "HPTLC in vitro IPCS assay of microsomal extracts, NBD-IPC production (Aur1p)", "type": "biochemical", "conditions": "presence vs absence of AbA", "method": "Microsomal material was prepared from MSY23-3C pESC-LEU_AtIPCS2 and MSY23-3C pESC-LEU_AUR1 as previously described[33]. IPCS turnover was assayed using HPTLC (Merck) and imaged using a Fuji FLA−3000 reader and AIDA Image Analyser® software (version 3.52) as previously described[17]."}},
  "note": "Values joined by “and” are separate entries in the source; they are usually repeats but may differ in a detail not shown here. Equal entries are not always repeated. “Also recorded” adds a separate entry of the source. Starred links: 1 amine or outer side, 2 acyl side, 3 side chain; linkers in the order of their positions; H or OH if unused. Non-standard residues stand in square brackets, D forms with d. Residues, ends and D or L forms follow the SMILES beside them. X1 = CC[C@@H](C)[C@@H](O[*:1])C(=O)[*:2]; NMeVal(β-OH) = CN[C@H](C(=O)O)C(C)(C)O; NMeF = CN[C@@H](Cc1ccccc1)C(=O)O; aIle = CC[C@@H](C)[C@H](N)C(=O)O; NMeV = CN[C@H](C(=O)O)C(C)C",
  "data": [
    {"molecule": "rustimicin", "values": [
      {"measurement": "IC50 against Saccharomyces cerevisiae", "setting": "fungal IPCS", "value": "low nano-molar"}
    ]},
    {"molecule": "pleofungin", "values": [
      {"measurement": "IC50 against Saccharomyces cerevisiae", "setting": "fungal IPCS", "value": "low nano-molar"}
    ]},
    {"molecule": "Cc1cc(Oc2ccc(C#N)c(CC(C)(C)C)c2)c(C)cc1N=CN1CCCCC1", "note": "[Compound 1]", "values": [
      {"measurement": "IC50", "setting": "AtIPCS2 [1]", "value": "4.02 µM and < 5 µM"},
      {"measurement": "phenotype of treated seedlings", "setting": "Arabidopsis seedlings; 7 day old seedlings on agar containing 10 and 40 µM, compared to DMSO control", "value": "clear purple patches associated with anthocyanin biosynthesis in response to stress[47], and an absence of lateral root development"},
      {"measurement": "effects on wild type Col-0 Arabidopsis seedlings, in words", "setting": "Arabidopsis seedlings; in vivo screening, dose response", "value": "dose dependent effects with decreased lateral root development, and distinctive purple leaf patches; also recorded: induce the plant stress response"},
      {"measurement": "concentration at which treatment restricted growth and led to purple leaf patches", "setting": "Arabidopsis seedlings; tested at 3.7, 11, 33 and 100 µM, compared to DMSO control", "value": "≥ 11", "unit": "µM"},
      {"measurement": "IC50", "setting": "Aur1p [2]", "value": "> 50", "unit": "µM"}
    ]},
    {"molecule": "CCCCCCCCCC[C@H](C)[C@@H](O)[C@@H](C)/C=C(C)/C=C(\\C)C(=O)[C@H](C)/C=C(\\C)C(=O)O[C@H](CO)[C@@H](O)[C@H](O)C(=O)O", "note": "[khafrefungin]", "values": [
      {"measurement": "IC50 against Saccharomyces cerevisiae", "setting": "fungal IPCS", "value": "low nano-molar"}
    ]},
    {"molecule": "CC[C@@H](C)[C@@H]1NC(=O)[C@@H]2CCCN2C(=O)[C@H](Cc2ccccc2)N(C)C(=O)[C@H](Cc2ccccc2)NC(=O)[C@H](C(C)C)N(C)C(=O)[C@@H]([C@H](C)CC)OC(=O)[C@H](C(C)(C)O)N(C)C(=O)[C@H](CC(C)C)NC(=O)[C@H](C(C)C)N(C)C1=O", "note": "[aureobasidin A] (cyclo(F[NMeF]P[aIle][NMeV]L[NMeVal(β-OH)][X1][NMeV]))", "values": [
      {"measurement": "sensitivity of AtIPCS2 activity (NBD-IPC production) to the compound", "setting": "AtIPCS2 [3]", "value": "insensitive"},
      {"measurement": "sensitivity of Aur1p activity (NBD-IPC production) to the compound", "setting": "Aur1p [4]", "value": "Only the fungal enzyme Aur1p is sensitive"},
      {"measurement": "IC50 against Saccharomyces cerevisiae", "setting": "fungal IPCS", "value": "low nano-molar"}
    ]},
    {"molecule": "haplofungin", "values": [
      {"measurement": "IC50 against Saccharomyces cerevisiae", "setting": "fungal IPCS", "value": "low nano-molar"}
    ]}
  ]
}
